Assays:
KRAS G12D = KRAS G12D (Homo sapiens, UniProt P01116, G12D); assay: SOS-catalyzed nucleotide exchange assay, KRAS G12D (Procedure A); assay type: biochemical; conditions: guanine nucleotide exchange (GNE)
Outline: (§1)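 Preformed TR-FRET complex of biotinylated KRAS (G12C carries C51S/C80L/C118S; others native sequence), Bodipy-GDP and Tb-streptavidin preincubated with compound 60 min at room temperature. Exchange started with human SOS plus 3 mM GTP for 60 min (G13D 30 min). Final RAS/SOS: G12C 3/40 nM; WT, G12D 1/40 nM; G13D 1.25/0 nM. 520/495 nm ratio normalised, fitted to four-parameter logistic.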

NRAS = NRAS (Homo sapiens, UniProt P01111); assay: SOS-catalyzed nucleotide exchange assay, NRAS (Procedure A); assay type: biochemical; conditions: GNE
From the text: (§2) Procedure for SOS-Catalyzed Nucleotide Exchange Assay for KRAS-WT, G12C/D/V, G13D, HRAS, and NRAS (Procedure A)
(§3) Recombinant KRAS-G12C protein used in this assay has an additional triple mutation (C51S/C80L/C118S). Whereas KRAS-WT, G12D/V, G13D, HRAS and NRAS are in context of their WT protein sequence background. Specifically, the SOS-catalyzed nucleotide exchange assay utilizes a preformed TR-FRET complex containing a specific biotinylated RAS protein (KRAS-WT, G12C/V/D, G13D, HRAS, NRAS; described above) with Bodipy-GDP, and Terbium-streptavidin. Compounds are preincubated with this complex for 60 minutes. Subsequently, recombinant human SOS protein and unlabeled GTP are added to initiate the exchange reaction. Small molecule inhibitors stabilize the Bodipy-GDP complex whereas the untreated protein rapidly exchanges Bodipy-GDP for unlabeled GTP resulting in reduced TR-FRET signal.
(§4) To assemble the preformed TR-FRET complexes, each biotinylated RAS protein is diluted to 2 μM in an EDTA Buffer (20 mM HEPES pH 7.5, 50 mM sodium chloride, 10 mM EDTA, and 0.01% Tween) and incubated at room temperature for one hour. This mixture is then further diluted to 90 nM in an Assay Buffer (20 mM HEPES pH 7.5, 150 mM sodium chloride, 10 mM magnesium chloride, and 0.005% Tween) containing 15 nM of Terbium-Streptavidin (Invitrogen, catalog #PV3577) and 900 nM of Bodipy-GDP (Invitrogen, catalog #G22360) and incubated at room temperature for six hours. It should be noted that this preformed TR-FRET complex for each of the RAS protein were made ahead of time, aliquoted and stored at −80° C. until the day of the experiment.
(§5) Each test compound (10 mM stock in DMSO) is diluted in DMSO to make a final-10-point, 3-fold dilution and is acoustically dispensed into a 384-well assay plate (Corning, catalog #3820) using an Echo 550 (Labcyte). Each well of the assay plate receives 3 μL of a specific 3×RAS preformed TR-FRET complex and 3 μL of Assay Buffer and is incubated at room temperature for 60 minutes (preincubation time). Each well then receives 3 μL of 3× recombinant human SOS protein and GTP (Sigma, G8877) in Assay Buffer and is incubated at room temperature for 30 minutes (G13D), 60 minutes (KRAS WT/G12C/D, H/NRAS) or 90 minutes for G12V. The final reaction in each well of 9 μL consists of 3 mM GTP, specific Ras and SOS proteins in the following concentrations: KRAS-G12C/SOS=3 nM/40 nM, KRAS-WT and G12D/SOS=1 nM/40 nM, KRAS-G12V/SOS=1.25 nM/160 nM, KRAS-G13D/SOS=1.25 nM/0 nM, HRAS and NRAS=1.25 nM/40 nM.
(§6) The time-resolved fluorescence resonance energy transfer (TR-FRET) signal is measured on an Envision (PerkinElmer) plate reader: Excitation filter=340 nm; emission1=495 nm; emission2=520 nm; dichroic mirror=D400/D505; delay time=[…]. The signal of each well is determined as the ratio of the emission at 520 nm to that at 495 nm. Percent effect of each well is determined after normalization to control wells containing DMSO (no effect) or a saturating concentration of inhibitor (max effect). The apparent effect as a function of compound concentration is fit to a four-parameter logistic equation.
(§7) For Example No. 14, nucleotide exchange assays for KRAS G12D, WT, G12C, and G12V were performed according to Procedure B. All the other compounds were tested according to Procedure A.

AsPC-1 cells = target: T1, AsPC-1 cells (Homo sapiens, UniProt P01116, G12D); assay: Cellular phospho-ERK assay, AsPC-1 cells (KRAS G12D); assay type: cell-based; conditions: 2 hours, read-out: AsPC1 pERK IC50
T1 construct: p-ERK/total ERK AlphaSureFire read-out
Outline: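 PANC08.13 or AsPC-1 cells (homozygous KRAS G12D) were seeded overnight, then treated for 2 h at 37 °C with a 10-point 1:3 titration from 30 μM. Lysates were assayed by AlphaLISA SureFire for p-ERK and total ERK. IC50 came from a 4-parameter fit of the p-ERK/total ERK ratio.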

KRAS G12C = KRAS G12C (Homo sapiens, UniProt P01116, C118S/C51S/C80L/G12C); assay: SOS-catalyzed nucleotide exchange assay, KRAS G12C (Procedure A); assay type: biochemical; conditions: GNE
From the text: as §2, §3, §4, §5, §6, §7

KRAS G12V = KRAS G12V (Homo sapiens, UniProt P01116, G12V); assay: SOS-catalyzed nucleotide exchange assay, KRAS G12V (Procedure A); assay type: biochemical; conditions: GNE
Outline: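 Biotinylated KRAS G12V was loaded with Bodipy-GDP alongside Terbium-streptavidin to form a TR-FRET complex, which was preincubated with compounds for 60 minutes in 384-well plates. Human SOS protein and unlabeled GTP were then added for 90 minutes, giving final concentrations of 1.25 nM KRAS-G12V, 160 nM SOS and 3 mM GTP. The 520/495 nm emission ratio was read on an Envision.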

KRAS WT = KRAS WT (Homo sapiens, UniProt P01116); assay: SOS-catalyzed nucleotide exchange assay, KRAS WT (Procedure A); assay type: biochemical; conditions: GNE
Outline: as §1

HRAS = HRAS (Homo sapiens, UniProt P01112); assay: SOS-catalyzed nucleotide exchange assay, HRAS (Procedure A); assay type: biochemical; conditions: GNE
From the text: as §2, §3, §4, §5, §6, §7

KRAS G13D = KRAS G13D (Homo sapiens, UniProt P01116, G13D); assay: SOS-catalyzed nucleotide exchange assay, KRAS G13D (Procedure A); assay type: biochemical; conditions: GNE
From the text: as §2, §3, §4, §5, §6, §7

KRAS G12V, sequence (P01116 with tags, fused parts or gaps isoform P01116-2 G12V): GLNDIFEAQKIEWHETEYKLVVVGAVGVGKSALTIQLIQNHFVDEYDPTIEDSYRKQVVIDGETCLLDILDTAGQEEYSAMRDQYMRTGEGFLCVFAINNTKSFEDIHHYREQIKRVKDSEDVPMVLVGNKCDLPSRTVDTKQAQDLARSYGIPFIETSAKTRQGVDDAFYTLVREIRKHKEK
KRAS G12D, sequence (P01116 with tags, fused parts or gaps isoform P01116-2 G12D): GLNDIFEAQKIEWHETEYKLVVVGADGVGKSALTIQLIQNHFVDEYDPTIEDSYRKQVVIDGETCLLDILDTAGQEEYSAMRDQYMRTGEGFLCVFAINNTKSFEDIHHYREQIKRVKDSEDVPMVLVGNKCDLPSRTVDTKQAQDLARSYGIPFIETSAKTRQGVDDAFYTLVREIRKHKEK
T1 sequence (P01116 1-188 isoform P01116-2 G12D): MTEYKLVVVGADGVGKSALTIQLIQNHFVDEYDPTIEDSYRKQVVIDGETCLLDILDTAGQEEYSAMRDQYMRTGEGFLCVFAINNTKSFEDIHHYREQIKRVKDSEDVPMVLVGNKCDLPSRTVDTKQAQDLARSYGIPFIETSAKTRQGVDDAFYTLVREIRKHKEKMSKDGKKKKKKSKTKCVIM
HRAS, sequence (P01112 with tags, fused parts or gaps): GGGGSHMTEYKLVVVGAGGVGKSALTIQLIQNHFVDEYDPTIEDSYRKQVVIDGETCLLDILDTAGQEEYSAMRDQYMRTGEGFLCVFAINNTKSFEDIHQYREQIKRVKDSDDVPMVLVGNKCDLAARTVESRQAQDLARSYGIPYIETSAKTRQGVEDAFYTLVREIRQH
KRAS WT, sequence (P01116 with tags, fused parts or gaps isoform P01116-2): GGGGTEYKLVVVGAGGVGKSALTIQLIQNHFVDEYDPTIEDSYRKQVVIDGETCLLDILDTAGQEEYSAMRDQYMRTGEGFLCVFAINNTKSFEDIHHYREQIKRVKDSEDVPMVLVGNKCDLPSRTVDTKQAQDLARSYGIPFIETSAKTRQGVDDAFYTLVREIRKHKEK
KRAS G13D, sequence (P01116 with tags, fused parts or gaps isoform P01116-2 G13D): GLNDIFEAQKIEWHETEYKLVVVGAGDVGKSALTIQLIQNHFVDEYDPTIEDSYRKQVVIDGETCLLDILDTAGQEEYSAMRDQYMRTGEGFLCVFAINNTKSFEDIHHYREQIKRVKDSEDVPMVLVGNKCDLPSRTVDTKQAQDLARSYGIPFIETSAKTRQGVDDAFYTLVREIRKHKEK
NRAS, sequence (P01111 with tags, fused parts or gaps): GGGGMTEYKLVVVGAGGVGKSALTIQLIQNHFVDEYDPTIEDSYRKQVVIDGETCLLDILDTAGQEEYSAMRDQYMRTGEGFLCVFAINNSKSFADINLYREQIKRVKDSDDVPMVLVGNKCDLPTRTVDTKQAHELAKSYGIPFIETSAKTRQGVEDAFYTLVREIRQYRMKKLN
KRAS G12C, sequence (P01116 with tags, fused parts or gaps isoform P01116-2 G12C/C51S/C80L/C118S): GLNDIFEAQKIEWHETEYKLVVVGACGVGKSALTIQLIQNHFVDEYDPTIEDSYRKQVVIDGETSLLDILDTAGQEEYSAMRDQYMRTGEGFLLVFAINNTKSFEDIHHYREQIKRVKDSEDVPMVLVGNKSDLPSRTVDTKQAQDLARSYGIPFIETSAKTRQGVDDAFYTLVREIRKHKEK

Row | Structure (SMILES) | IC50 (KRAS G12D) [µM] | IC50 (NRAS) [µM] | IC50 (AsPC-1 cells) [µM] | IC50 (KRAS G12C) [µM] | IC50 (KRAS G12V) [µM] | IC50 (KRAS WT) [µM] | IC50 (HRAS) [µM] | IC50 (KRAS G13D) [µM]
1 | CC12CC(COc3nc(N4C[C@H]5CC[C@@H](C4)N5)c4c(n3)sc3c(-c5c(C6CC6)c(Cl)cc6[nH]ncc56)nccc34)(CO1)C2 [Ex-23, 4-((1R,5S)-3,8-diazabicy-clo[3.2.1]octan-3-yl)-8-(6-chloro-5-cyclopropyl-1H-indazol-4-yl)-2-(((1R,4r)-1-methyl-2-oxabicy-clo[2.1.1]hex-an-4-yl)methoxy)pyri-do[4′,3′:4,5]thi-eno[2,3-d]pyrimi-dine] | 1.97 | > 11.1 | 8.11 | > 11.1 | > 11.1 | > 11.1 | > 11.1 | > 11.1
2 | OC1C2CCCC1(COc1nc(N3C[C@H]4CC[C@@H](C3)N4)c3c(n1)sc1c(-c4c(C5CC5)c(Cl)cc5[nH]ncc45)nccc13)CC2 (stereo partly drawn) [Ex-24, 1-(((4-((1R,5S)-3,8-diazabicy-clo[3.2.1]octan-3-yl)-8-(6-chloro-5-cyclopropyl-1H-indazol-4-yl)pyri-do[4′,3′:4,5]thi-eno[2,3-d]pyrimidin-2-yl)oxy)methyl)bi-cyclo[3.2.1]oc-tan-8-ol] | 5.23 | > 11.1 | 18.4 | > 11.1 | > 11.1 | > 11.1 | > 11.1 | > 11.1
3 | Clc1cc2[nH]ncc2c(-c2nccc3c2sc2nc(OCC45CCOC(CO4)C5)nc(N4C[C@H]5CC[C@@H](C4)N5)c23)c1C1CC1 [Ex-22, 2-((2,6-dioxabicy-clo[3.2.1]octan-5-yl)methoxy)-4-((1R,5S)-3,8-diazabicy-clo[3.2.1]octan-3-yl)-8-(6-chloro-5-cyclopropyl-1H-indazol-4-yl)pyrido [4′,3′:4,5]thi-eno[2,3-d]pyrimidine] | 2.73 | > 11.1 | 10 | > 11.1 | > 11.1 | > 11.1 | > 11.1 | 9.11
4 | Cc1cc2[nH]ncc2c(-c2nccc3c2sc2nc(OC[C@H]4C[C@H](S(C)(=N)=O)C4)nc(N4C[C@H]5CC[C@@H](C4)N5)c23)c1C(F)(F)F (stereo partly drawn) [Ex-35, (1S)-((1R,3S)-3-(((4-((1R,5S)-3,8-diazabicyclo[3.2.1]octan-3-yl)-8-(6-methyl-5-(trifluoromethyl)-1H-indazol-4-yl)pyrido[4′,3′:4,5]thieno[2,3-d]pyrimidin-2-yl)oxy)methyl)cyclobutyl)(imino) (methyl)-λ^6-sulfanone] | 1.43 | > 11.1 | > 30 | > 11.1 | > 11.1 | > 11.1 | > 11.1 | > 11.1

The next molecules have a lower IC50 (KRAS G12D) than those just listed; values first:

Row | IC50 (KRAS G12D) [µM] | IC50 (NRAS) [µM] | IC50 (AsPC-1 cells) [µM] | IC50 (KRAS G12C) [µM] | IC50 (KRAS G12V) [µM] | IC50 (KRAS WT) [µM] | IC50 (HRAS) [µM] | IC50 (KRAS G13D) [µM] | Structure (SMILES)
5 | 0.0171 | > 11.1 | 0.726 | 0.334 | 2.32 | 4.84 | > 11.1 | 0.374 | Cc1cc2[nH]ncc2c(-c2nncc3c2sc2nc(OC[C@@]45CCCN4C[C@H](F)C5)nc(N4C[C@H]5CC[C@@H](C4)N5)c23)c1C(F)(F)F [Ex-77, 4-((1R,5S)-3,8-diazabicyclo[3.2.1]octan-3-yl)-2-(((2R,7aS)-2-fluorotetrahydro-1H-pyrrolizin-7a(5H)-yl)methoxy)-8-(6-methyl-5-(trifluoromethyl)-1H-indazol-4-yl)pyrimido[5′,4′:4,5]thieno[2,3-d]pyridazine]
6 | 0.0348 | > 11.1 | 0.885 | 1.1 | 5.16 | 8.09 | > 11.1 | 2.51 | Cc1cc2[nH]ncc2c(-c2nccc3c2sc2nc(OC[C@@]45CCCN4C[C@H](F)C5)nc(N4[C@@H]5CC[C@H]4CNC5)c23)c1C(F)(F)F [Ex-71, 4-((1R,5S)-3,8-diazabicyclo[3.2.1]octan-8-yl)-2-(((2R,7aS)-2-fluorotetrahydro-1H-pyrrolizin-7a(5H)-yl)methoxy)-8-(6-methyl-5-(trifluoromethyl)-1H-indazol-4-yl)pyrido[4′,3′:4,5]thieno[2,3-d]pyrimidine]
7 | 0.128 | > 11.1 | 1.7 | 1.96 | > 11.1 | 8.79 | > 11.1 | 2.74 | Cc1cc2[nH]ncc2c(-c2nccc3c2sc2nc(OC[C@@]45CCCN4C[C@H](F)C5)nc(N4CC5COCC(C4)N5)c23)c1C(F)(F)F [Ex-65, 7-(2-(((2R,7aS)-2-fluorotetrahydro-1H-pyrrolizin-7a(5H)-yl)methoxy)-8-(6-methyl-5-(trifluoromethyl)-1H-indazol-4-yl)pyrido[4′,3′:4,5]thieno[2,3-d]pyrimidin-4-yl)-3-oxa-7,9-diazabicyclo[3.3.1]nonane]
8 | 0.0263 | > 11.1 | 0.397 | 1.04 | 6.35 | 8.27 | > 11.1 | 1.81 | Cc1cc2[nH]ncc2c(-c2nccc3c2sc2nc(OC[C@@]45CCCN4C[C@H](F)C5)nc(N4C[C@H]5CC[C@@](C)(C4)N5)c23)c1C(F)(F)F [Ex-76, 2-(((2R,7aS)-2-fluorotetrahydro-1H-pyrrolizin-7a(5H)-yl)methoxy)-8-(6-methyl-5-(trifluoromethyl)-1H-indazol-4-yl)-4-((1S,5R)-1-methyl-3,8-diazabicyclo[3.2.1]octan-3-yl)pyrido[4′,3′:4,5]thieno[2,3-d]pyrimidine]
9 | 0.00789 | > 11.1 | 0.612 | 0.457 | 5 | 2.8 | > 11.1 | 0.486 | CN(C)C[C@@]1(COc2nc(N3C[C@H]4CC[C@@H](C3)N4)c3c(n2)sc2c(-c4c(C5CC5)c(Cl)cc5[nH]ncc45)nccc23)CC1(F)F [Ex-21, 1-((1R)-1-(((4-((1R,5S)-3,8-diazabicy-clo[3.2.1]octan-3-yl)-8-(6-chloro-5-cyclopropyl-1H-indazol-4-yl)pyrido [4′,3′:4,5]thieno [2,3-d]pyrimidin-2-yl)oxy)methyl)-2,2-difluoro-cyclopropyl)-N,N-dimethyl-methanamine]
